Test results reported in ChEMBL document CHEMBL1201862, “PubChem BioAssay data set” (2004).
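Compound exposure: 48 hours, 5 concentrations, 96-well plates. GI50: concentration for 50% inhibition of growth.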 The source made the active and inactive calls. Rule as the data show it: active = GI50 up to about 1.1 µM and inactive = higher.

Tests used:
Assay in all cases: NCI-60 cell line screen, 48 h
[1] = tested on: KM12
[2] = tested on: K562
[3] = tested on: HCC 2998
[4] = tested on: T47D
[5] = tested on: SR
[6] = tested on: OVCAR-5
[7] = tested on: MCF7
[8] = tested on: HL-60
[9] = tested on: SW-620
[10] = tested on: CAKI-1
[11] = tested on: KM-20L2
[12] = tested on: A498
[13] = tested on: SF-539
[14] = tested on: SK-MEL-2
[15] = tested on: LOX IMVI
[16] = tested on: DU-145
[17] = tested on: U-251
[18] = tested on: DMS-273
[19] = tested on: 786-0
[20] = tested on: MDA-N

SMILES | GI50 [1] | GI50 [2] | GI50 [3] | GI50 [4] | GI50 [5] | GI50 [6] | GI50 [7] | GI50 [8] | GI50 [9] | GI50 [10] | GI50 [11] | GI50 [12] | GI50 [13] | GI50 [14] | GI50 [15] | GI50 [16] | GI50 [17] | GI50 [18] | GI50 [19] | GI50 [20]
C/C(=N\N)C(CN1CCCCC1)C(c1ccccc1)c1c(O)c2ccccc2oc1=O (stereo not given) | > 100 µM (inactive) | > 100 µM (inactive) | > 100 µM (inactive) | > 100 µM (inactive) | > 100 µM (inactive) | > 100 µM (inactive) | > 100 µM (inactive) | > 71 µM (inactive) | > 100 µM (inactive) | > 100 µM (inactive) | > 100 µM (inactive) | > 100 µM (inactive) | > 100 µM (inactive) | > 100 µM (inactive) | 25.7 µM (inactive) | > 100 µM (inactive) | > 100 µM (inactive) | > 100 µM (inactive) | > 100 µM (inactive) | –
CC1(CO)C(O)CCC2(C)C1C(O)CC1CC3CC12CCC3(O)CO (stereo not given) | > 225 µM (inactive) | > 225 µM (inactive) | > 225 µM (inactive) | – | – | > 225 µM (inactive) | > 217 µM (inactive) | 102 µM (inactive) | > 225 µM (inactive) | > 225 µM (inactive) | > 225 µM (inactive) | > 225 µM (inactive) | > 225 µM (inactive) | > 225 µM (inactive) | > 225 µM (inactive) | – | > 225 µM (inactive) | 104 µM (inactive) | – | –
[N-]=[N+]=NC1(Cc2ccccc2)C(=O)Nc2ccccc2C1=O (stereo not given) | > 100 µM (inactive) | > 100 µM (inactive) | > 100 µM (inactive) | – | > 100 µM (inactive) | > 100 µM (inactive) | – | > 100 µM (inactive) | > 100 µM (inactive) | > 100 µM (inactive) | > 100 µM (inactive) | > 100 µM (inactive) | > 100 µM (inactive) | > 100 µM (inactive) | > 100 µM (inactive) | – | > 100 µM (inactive) | > 100 µM (inactive) | > 100 µM (inactive) | –
O=C(O)Cc1ccccc1CCc1ccccc1Cl | > 100 µM (inactive) | > 100 µM (inactive) | > 100 µM (inactive) | – | > 100 µM (inactive) | > 100 µM (inactive) | – | > 100 µM (inactive) | > 100 µM (inactive) | > 100 µM (inactive) | > 100 µM (inactive) | > 100 µM (inactive) | > 100 µM (inactive) | 30.8 µM (inactive) | > 100 µM (inactive) | – | > 100 µM (inactive) | > 100 µM (inactive) | > 100 µM (inactive) | –
CC[C@@]1(OC(=O)C(N)CCC(=O)O)C(=O)OCc2c1cc1n(c2=O)Cc2cc3ccccc3nc2-1 (stereo not given in full) | – | 0.314 µM (active) | 0.461 µM (active) | 0.0267 µM (active) | – | 0.248 µM (active) | < 0.01 µM (active) | 0.0208 µM (active) | 0.179 µM (active) | < 0.0182 µM (active) | 0.474 µM (active) | 0.187 µM (active) | 0.018 µM (active) | 1.12 µM (active) | 0.0196 µM (active) | < 0.01 µM (active) | 0.0202 µM (active) | 0.0183 µM (active) | 0.0206 µM (active) | 0.314 µM (active)
O=[N+]([O-])c1ccc(CNC2=NNS(=O)(=O)c3ccccc32)cc1 | > 100 µM (inactive) | 27 µM (inactive) | > 100 µM (inactive) | – | 31.6 µM (inactive) | > 100 µM (inactive) | – | 79.3 µM (inactive) | > 100 µM (inactive) | 26.6 µM (inactive) | > 100 µM (inactive) | 32.1 µM (inactive) | > 100 µM (inactive) | > 100 µM (inactive) | 54 µM (inactive) | – | 72.1 µM (inactive) | > 100 µM (inactive) | > 100 µM (inactive) | –
